Test results from ChEMBL document CHEMBL4371010, “Thermodynamics of DNA Minor Groove Binders” (2019).
Converted amounts (≈) assume the structure as drawn.

What was measured:
[1] = test system: Staphylococcus aureus; test: Antibacterial activity against methicillin-resistant Staphylococcus aureus; type: functional
[2] = test system: Clostridioides difficile; test: […] activity against Clostridium difficile; type: functional

SMILES	MIC [1] [µM]	MIC [2] [µg/mL]
COc1cccc(C(=O)Nc2cc(C(=O)Nc3cc(C(=O)Nc4cc(C(=O)NCCCN(C)C)n(C)c4)n(CCC(C)C)c3)n(C)c2)c1	2 (≈ 1.32 µg/mL)	
CC1(C)S[C@@H]2[C@H](NC(=O)[C@H](N)c3ccc(O)cc3)C(=O)N2[C@H]1C(=O)O [AMOXICILLIN]	16.1 (≈ 5.88 µg/mL)	
Cn1cc(NC(=O)c2cc(NC(=O)c3ccc(/C=C/c4cnc5ccccc5c4)cc3)cn2C)cc1C(=O)NCCN1CCOCC1 [MGB-BP-3]		1 (≈ 1.58 µM)
CN[C@H](CC(C)C)C(=O)N[C@H]1C(=O)N[C@@H](CC(N)=O)C(=O)N[C@H]2C(=O)N[C@H]3C(=O)N[C@H](C(=O)N[C@H](C(=O)O)c4cc(O)cc(O)c4-c4cc3ccc4O)[C@H](O)c3ccc(c(Cl)c3)Oc3cc2cc(c3O[C@@H]2O[C@H](CO)[C@@H](O)[C@H](O)[C@H]2O[C@H]2C[C@](C)(N)[C@H](O)[C@H](C)O2)Oc2ccc(cc2Cl)[C@H]1O [VANCOMYCIN]		1 (≈ 0.69 µM)
